# In patent US20240293420A1, “PHARMACEUTICAL COMPOSITION, PREPARATION, AND PREPARATION METHOD THEREFOR AND USE THEREOF” (WUHAN LL SCIENCE AND TECHNOLOGY DEVELOPMENT CO., LTD., priority 2021, published 2024):
# “Also recorded” adds a separate entry of the source.
# What was measured:
# [1] = Crystal form transformation under humidity / drying (XRPD); type: physicochemical; conditions: humidity or drying as stated in the value
# Description: Crystal form I can be obtained by the preparation method in Example 3. […] (FIG. 29). Combined with the DVS test results (FIG. 30), it can be seen that the mutual transformation between crystal forms I and IV is reversible.
# Crystal form IV is a hygroscopic product of crystal form I under high humidity environment, and can be obtained by slurrying crystal form I or crystal form V in a mixed solvent of water/acetone with a water content of 50% to 95%.
# Crystal form VI was obtained by slurrying crystal form I or crystal form V at 60° C. in a mixed solvent of water/acetone with a water content of 10% (volume ratio) at 60° C.
# Crystal form VIII is a hydrate, but the hydrate is unstable.
# [2] = Dynamic vapor sorption (DVS) test; type: physicochemical; conditions: for DVS (wt %, 80% RH) / DVS (wt %, 90% RH): 25° C.
# [3] = Physical and chemical stability of crystal forms at 60° C. (closed) and 40° C./75% RH (open); type: physicochemical
# Method: The physical and chemical stability of crystal forms I, III, and V at 60° C. (closed) and 40° C./75% RH (open) for 7 days were investigated respectively.
# (closed) and 40° C./75% RH (open) for 3 months were investigated.
# [4] = Solubility tests in biological media of SGF, FaSSIF and FeSSIF; type: physicochemical
# Method: The instrument used for liquid chromatography analysis was Agilent HPLC 1260 series, and the analytical method is shown in the table below.
# The results of solubility tests of crystal forms I, III, and V in biological media of SGF, FaSSIF, and FeSSF are as shown in Table E and FIG. 43. There was little difference in the solubility of the above three crystal forms in different biological media, and the solubility in SGF was higher than 5 mg/mL.
# [5] = Pharmacokinetic experiments in Beagles; type: in vivo; conditions: Beagle, male, PO, 10 mg/kg, plasma
# Method: The present disclosure preferred crystal forms I, III, and V of the compound in the above examples for pharmacokinetic experiments in Beagles, and the relevant experiments are as follows:
# Animal: 9 Beagles, male, divided into three groups with 3 in each group, weight ranging from 10 to 13 kg (source & certificate number: Beijing Marshall Biotechnology Co., Ltd., No. 1103182011000161)
# Administration mode and dosage: PO: 10 mg/kg
# Preparation: 0.5% CMC-Na was used as the solvent, and 400 mg of each of the three different crystal forms of compound A were weighed and added to the corresponding 79 mL of solvent, respectively. The mixture was subjected to ultrasonication for 20 minutes, added with a stirrer, and mixed thoroughly for 3 hours (the storage period from compound preparation to animal administration at room temperature was less than 6 hours). After the drug solution became a homogeneous and fine suspension, which was observed by the naked eye, the solvent was gradually added until the specified volume reached the target concentration. The preparation was stirred for 10 minutes at room temperature before administration, and stirred continuously during administration.
# Time points for sampling: the time points for blood sampling in the PO group were 0.167, 0.5, 1, 2, 4, 6, 8, and 24 hours.
# Animals in the PO group were fasted overnight except for free access to water before administration, and resumed food supply 4 hours after administration.
# After Beagles in the […] were administered, blood was collected from Beagles by jugular vein puncture according to the time points for sampling. About 1.0 mL of blood was collected at each time point and transferred to an anticoagulant EP tube (containing 10 μL of EDTA-K2, 375 mg/mL). The tube was gently inverted three times, stored in an ice box (no more than 30 minutes), and centrifuged at 3200 g for 10 minutes at 4° C. The plasma was transferred to an ultra-low temperature refrigerator and stored until detection.
# Sample pretreatment process: 40 μL of sample was taken, and 160 μL of acetonitrile solution containing 0.1% FA and 200 ng/mL of mixed standard solution was added to precipitate the protein. The mixture was vortexed and mixed well, and the sample was centrifuged in a 4° C. centrifuge at 13000 pm for 10 minutes. 100 μL of the supernatant was transferred to another 96 deep well plate, then 100 μL of methanol:water (1:3, v:v) solution containing 0.1% FA was added thereto, and the mixture was shaken and mixed for 10 minutes.
# • Ion source: ion electrospray (ESI) • Ionization mode: positive ion mode (Positive) • Detection mode (mode): multiple reaction monitoring (MRM) • Ion spray voltage: 5500 V • Ion spray temperature (turbo ion spray temp): 550° C. • Curtain gas type: nitrogen setting: 35 • Collision cell gas type (CAD gas type): nitrogen setting: medium • Nebulizing gas type (gas 1): nitrogen setting: 55.00 • Auxiliary gas type (gas 2): nitrogen setting: 55.00
# • Chromatographic column: poroshell 120 EC-C18 (4.6×50 mm, 2.7 μm) • Mobile phase A: 0.1% formic acid aqueous solution • Mobile phase B: a solution of 0.1% formic acid in methanol • Auto sampler wash solution (rinse port wash solution): 50% methanol • Column temperature: 40° C. • Flow rate: 0.55 mL/min • Auto sampler temperature (sample tray temp): 10° C. • Injection volume: 3 μL • Lift of presser foot (needle stroke): 49 mm • Auto sampler rinse setting (rinse pump setting): rinse port only • Auto sampler rinse mode (rinse mode): before aspiration • Auto sampler rinse volume for needle (rinse volume): 500 μL • Dip time when rinsing the injection needle (rinse dip time): 2 seconds
# The data would be analyzed using WinNonlin (version 5.2.1 Pharsight, Mountain View, CA) through a non-compartmental model to obtain PK parameters (selecting Cmax, Tmax, AUClast, T1/2, and other parameters according to different routes of administration).
# [6] = phase II clinical trial; cited from earlier work
Compound,crystal form transformation [1],"DVS (wt %, 80% RH) ([2]; 80% RH) [wt %]","DVS (wt %, 90% RH) [2] [wt %]","Purity - 7 days (peak area %) ([3]; 40° C./75% RH (open), 7 days)","Purity - 7 days (peak area %) ([3]; 60° C. (closed), 7 days)",Initial purity (peak area %) [3] [peak area %],"XRPD of remaining solid ([4]; FaSSIF, 0.5 h)","pH ([4]; FaSSIF, 0.5 h)","pH ([4]; FaSSIF, 2 h)","pH ([4]; FaSSIF, 24 h)","XRPD of remaining solid ([4]; FeSSIF, 0.5 h)","pH ([4]; FeSSIF, 0.5 h)","pH ([4]; FeSSIF, 2 h)","pH ([4]; FeSSIF, 24 h)","pH ([4]; SGF, 0.5 h)","pH ([4]; SGF, 2 h)","pH ([4]; SGF, 24 h)",AUClast [5] [ng·h/mL],Cmax [5] [ng/mL],T1/2 [5] [h],further results
"COC(=O)N1CCO[C@@H](Cc2c(-c3c(F)cc(S(N)(=O)=O)cc3F)nc3cc(Cl)ccn23)C1 [Crystal form IV, methyl (S)-2-((7-chloro-2-(2,6-difluoro-4-sulfamoylphenyl)imidazo[1,2-a]pyridin-3-yl)methyl)morpholine-4-carboxylate]",transformed into crystal form I as an anhydrous crystal form after vacuum drying and dehydration,–,–,–,–,–,–,–,–,–,–,–,–,–,–,–,–,–,–,–,–
"COC(=O)N1CCO[C@@H](Cc2c(-c3c(F)cc(S(N)(=O)=O)cc3F)nc3cc(Cl)ccn23)C1 [Crystal form V, methyl (S)-2-((7-chloro-2-(2,6-difluoro-4-sulfamoylphenyl)imidazo[1,2-a]pyridin-3-yl)methyl)morpholine-4-carboxylate]",–,0.7,0.9,99.28,99.30,99.29,Unchanged,6.4,6.4,6.4,Unchanged,5.0,5.0,5.1,1.2,1.1,1.2,2637 ± 1750,170 ± 99.4,44.4 ± 28.9,"XRPD of remaining solid ([4]; FaSSIF, 2 h): Unchanged; XRPD of remaining solid ([4]; FaSSIF, 24 h): Unchanged; XRPD of remaining solid ([4]; FeSSIF, 2 h): Unchanged; XRPD of remaining solid ([4]; FeSSIF, 24 h): Unchanged; solubility at 2 h ([4]; pH 1.1, simulated gastric fluid, thermodynamic from solid, SGF, 2 h, visual observation): > 5000 µg/mL; Tmax [5]: 4.67 ± 0.67 h"
"COC(=O)N1CCO[C@@H](Cc2c(-c3c(F)cc(S(N)(=O)=O)cc3F)nc3cc(Cl)ccn23)C1 [Crystal form I, methyl (S)-2-((7-chloro-2-(2,6-difluoro-4-sulfamoylphenyl)imidazo[1,2-a]pyridin-3-yl)methyl)morpholine-4-carboxylate]",absorbed moisture under high humidity environment and was transformed into crystal form IV as a hydrate; also recorded: easy to transform into crystal form IV when RH >40%,6.8,6.9,99.38,99.37,99.38,transformed into crystal form IV as a hydrate,6.4,6.4,6.4,transformed into crystal form IV as a hydrate,5.0,5.1,5.1,1.2,1.3,1.2,7926 ± 6235,991 ± 800,11.9 ± 3.65,"XRPD before and after the DVS test [2]: remained unchanged; hygroscopicity (DVS) ([2]; 80% RH): 6.8%; XRPD ([3]; 40° C./75% RH (open), 7 days): transformed into crystal form IV as a hydrate; Tmax [5]: 2.00 ± 0.00 h"
"COC(=O)N1CCO[C@@H](Cc2c(-c3c(F)cc(S(N)(=O)=O)cc3F)nc3cc(Cl)ccn23)C1 [Crystal form VIII, methyl (S)-2-((7-chloro-2-(2,6-difluoro-4-sulfamoylphenyl)imidazo[1,2-a]pyridin-3-yl)methyl)morpholine-4-carboxylate]",transformed into crystal form I,–,–,–,–,–,–,–,–,–,–,–,–,–,–,–,–,–,–,–,–
COc1cc(C(C)C)c(Oc2cnc(N)nc2N)cc1S(N)(=O)=O [AF-219],–,–,–,–,–,–,–,–,–,–,–,–,–,–,–,–,–,–,–,–,dysgeusia [6]: serious dysgeusia problem; efficacy on refractory cough [6]: good efficacy
"COC(=O)N1CCO[C@@H](Cc2c(-c3c(F)cc(S(N)(=O)=O)cc3F)nc3cc(Cl)ccn23)C1 [Crystal form VI, methyl (S)-2-((7-chloro-2-(2,6-difluoro-4-sulfamoylphenyl)imidazo[1,2-a]pyridin-3-yl)methyl)morpholine-4-carboxylate]",transformed into crystal form I after being placed under ambient humidity (35% RH) for a few minutes,–,–,–,–,–,–,–,–,–,–,–,–,–,–,–,–,–,–,–,–
